Data taken from patent US7662789B2, “Peptide substance restoring myocardium function” (“Access Bioscience” CJSC, priority 2004, dated 2010).
Read-outs that look alike come from different tables or passages of the source. Marks after values point to notes of the source that are not given here. Where a SMILES comes first, the peptide text is derived from it.

Legend:
[1] = test system: isolated cardiomyocytes; assay: Cardiomyocyte bioenergetics, polarographic oxygen consumption; type: cell-based, rats
Procedure: Cardiomyocytes were extracted from the cardiac muscle of pubertal rats by Vahouny. Oxygen consumption by isolated cardiomyocytes was registered polarographically at the temperature of 30° C. Part of cardiomyocytes suspension was oxygenated by saturation with carbogen for 1-3 hours at room temperature. The other part of suspension was not oxygenated (conditions of moderate hypoxia). […] The tetrapeptide was introduced into the medium in the concentration of 10 ng/ml.

[2] = test system: adrenalin dystrophy in rat myocardium; assay: Adrenalin dystrophy in rat myocardium; type: in vivo, rats; conditions: for Diene conjugates content / Malon dialdegide content: 24 hours
Procedure: The experiment was conducted on 30 white mongrel rats with body weight of 180-200 g. The animals were randomly subdivided into three groups, each consisting of 10 animals. Adrenalin dystrophy was induced by administering the fresh adrenalin solution (“Serva”, USA) intraperitoneally in the dose of 2 mg/kg. The control animals received 0.9% NaCl solution. Then the experimental animals were in 1 and 5 hours treated with Ala-Glu-Asp-Arg (SEQ ID NO:1) tetrapeptide in the dose of 0.05 μg per animal in sterile 0.9% NaCl solution. In 4 hours since the beginning of the experiment cardiac muscle bioptates weighing approximately 10 mg were taken for the identification of cardiac dehydrogenases activity and glycogen content in the myocardium. In 24 hours the animals were killed by momentary decapitation. Left ventricle fragments were frozen in […]. In cryostatic slices the activity of succinatedehydrogenase (SDH) was histochemically identified, as well as of NADN-dehydrogenase (NADN-DH), lactatedehydrogenase and glycogen content.

[3] = test system: chlorine-calcium arrhythmia in rats; assay: Chlorine-calcium (CaCl2) arrhythmia in rats; type: in vivo; conditions: for Death after the first arrhythmogen administration, abs.: 10 animals
Procedure: The experiment was conducted on 60 white mongrel rats with body weight of 180-200 g. The animals were randomly subdivided into 6 groups, each consisting of 10 animals. The rats were narcotized with urethane and received 220 mg/kg of 10% CaCl2 solution. Ala-Glu-Asp-Arg tetrapeptide was administered to the animals intraperitoneally, once, in the doses of 0.05-1.0 μg/kg in sterile 0.9% NaCl solution.

[4] = test system: white mongrel male mice; assay: Acute toxicity, single intramuscular administration in mice; type: in vivo; conditions: single i.m. 1-5 mg/kg; dose 5000 times exceeding the therapeutic one
Procedure: The experiment aimed at the study of acute toxicity was conducted on 66 white mongrel male mice with body weight of 20-23 g. The animals were randomly subdivided into 6 equal groups. The substance was administered once, intramuscularly, in 0.25 ml volume, in the doses of 1 mg/kg, 2 mg/kg, 3 mg/kg, 4 mg/kg and 5 mg/kg in sterile 0.9% NaCl solution. The control animals received 0.9% NaCl solution.

[5] = test system: organotypic cardiac culture explants; conditions: 3 days incubation
Procedure: Cardiac tissue explants (from the left and right ventricles) of pubertal Wistar rats were cultivated in petri dishes with collagen bottom cover. The nutritious medium was composed of 35% Eagle's medium, 35% Hanx solution, 25% calf fetal serum and 5% of chicken embryonic extract with added glucose, insulin, gentamycin and glutamin. Ala-Glu-Asp-Arg (SEQ ID NO:1) tetrapeptide was added into the cultural medium in fixed concentrations, from 0.01 to 20.0 ng per ml of nutritious medium. After 3 days of incubation at the temperature of 37° C. the increase in the area of explants was identified using phase contrast microscope. Biological activity of the preparation was expressed in the change of square index (SI) of the explants cultivated in the medium containing the peptide, as compared to the control.

[6] = test system: rat myocardium, TMTD poisoning; assay: Toxicochemical myocardiopathy by tetramethyl thiuram disulfide (TMTD) poisoning in rats; type: in vivo
Procedure: The experiment was conducted on 40 white mongrel rats with body weight of 220-230 g. The animals were randomly subdivided into four groups. The intoxication of animals with tetramethyl thiuram disulfide (TMTD) industrial poison was conducted in the form of 20-day course of 5% oil TMTD solution administration in the dose of 25 mg/kg intragastrically. The tetrapeptide was administered during the last 10 days of the experiment intramuscularly in the dose of 0.05 μg per animals in sterile 0.9% NaCl solution. Upon expiry of the indicated terms both the control and experimental animals were killed by momentary decapitation. Myocardium fragments were fixed by 12% formalin solution. Paraphin slices were stained by hematoxylin-eosine, as well as by Van Gison, Brachet, with sudan III, IV. Intact animals served as the control.

[7] = adrenalin + 0.05 μg per animal, liver
[8] = adrenalin + tetrapeptide, 4 hours
[9] = TMTD 25 mg/kg 20 days + tetrapeptide 0.05 μg per animal i.m. last 10 days
[10] = intact animals, 0.05 μg per animal i.m. 10 days

## C[C@H](N)C(=O)N[C@@H](CCC(=O)O)C(=O)N[C@@H](CC(=O)O)C(=O)N[C@@H](CCCNC(=N)N)C(=O)O [Tetrapeptide, L-alanyl-L-glutamyl-L-aspartyl-L-arginine] (H-AEDR-OH)
[1]; 10 ng/ml, hypoxia, succinate 1×10^−4 M, without tetrapeptide 7.35±0.26
  Coefficient of breath stimulation (breath rate with succinate to initial breath rate): 1.97±0.26
[1]; tetrapeptide in the medium
  NAD.H2 oxidation by cardiomyocytes: increases NAD.H2 oxidation by cardiomyocytes
[2]; 24 hours after induction of dystrophy, control 176±24
  Quantity of diene conjugates in the myocardium: 110 ± 17 nmol/g
[2]; adrenalin 2 mg/kg i.p. + 0.05 μg per animal at 1 and 5 h, heart
  Diene conjugates content: 110 ± 17 nmole/g of tissue
[2]; adrenalin + 0.05 μg per animal, heart
  Malon dialdegide content: 173 ± 25 nmole/g of tissue
[2]; [7]
  Diene conjugates content: 92 ± 11 nmole/g of tissue
  Malon dialdegide content: 270 ± 56 nmole/g of tissue
[2]; [8]
  Enzyme activity in the myocardium tissue: LDH: 0.154 ± 0.011 rel. optical density unit
  Enzyme activity in the myocardium tissue: NADN-DH: 0.344 + 0.019 rel. optical density unit
  Enzyme activity in the myocardium tissue: SDH: 0.284 ± 0.013 rel. optical density unit
[2]; adrenalin + tetrapeptide, myocardium, 4 hours
  Glycogen content: 0.168±0.021 rel. optical density unit
[3]; 0.05 μg/kg i.p. once
  Death after the first arrhythmogen administration, %: 50%
  Frequency of sinus rhythm restoration after the first CaCl2 administration: 27.0%
  Frequency of ventricle fibrillation development in the course of the experiment: 60.3%
  Maximum tolerable arrhythmogen dose: 220 mg/kg
  Death after the first arrhythmogen administration, abs.: 5
[3]; 0.1 μg/kg i.p. once
  Death after the first arrhythmogen administration, %: 50%
  Frequency of sinus rhythm restoration after the first CaCl2 administration: 29.6%
  Frequency of ventricle fibrillation development in the course of the experiment: 45.8%
  Maximum tolerable arrhythmogen dose: 220 mg/kg
  Death after the first arrhythmogen administration, abs.: 5
[3]; 0.2 μg/kg and 0.5 μg/kg, bradicardia rats
  Increase of frequency of heart contractions (FHC): 12.3-48.6%
[3]; 0.2 μg/kg i.p. once
  Death after the first arrhythmogen administration, %: 30%
  Frequency of sinus rhythm restoration after the first CaCl2 administration: 49.0* %
  Frequency of ventricle fibrillation development in the course of the experiment: 35.2* %
  Maximum tolerable arrhythmogen dose: 440 mg/kg
  Death after the first arrhythmogen administration, abs.: 3
[3]; 0.5 μg/kg i.p. once
  Death after the first arrhythmogen administration, %: 40%
  Frequency of sinus rhythm restoration after the first CaCl2 administration: 39.5* %
  Frequency of ventricle fibrillation development in the course of the experiment: 39.1* %
  Maximum tolerable arrhythmogen dose: 440 mg/kg
  Death after the first arrhythmogen administration, abs.: 4
[3]; 1.0 μg/kg i.p. once
  Death after the first arrhythmogen administration, %: 60%
  Frequency of sinus rhythm restoration after the first CaCl2 administration: 16.3%
  Frequency of ventricle fibrillation development in the course of the experiment: 43.6%
  Maximum tolerable arrhythmogen dose: 220 mg/kg
  Death after the first arrhythmogen administration, abs.: 6
[3]; doses 0.05-1.0 μg/kg i.p. tested
  Most efficient dose: 0.0002 mg/kg
[4]
  Acute toxicity, toxic reactions: does not cause toxic reactions
[5]; 0.01 ng/ml
  SI, % with respect to the control: 10%
[5]; 0.05 ng/ml
  SI, % with respect to the control: 20* %
[5]; 0.1 ng/ml
  SI, % with respect to the control: 22* %
[5]; 0.5 ng/ml
  SI, % with respect to the control: 20* %
[5]; 1.0 ng/ml
  SI, % with respect to the control: 15* %
[5]; 2.0 ng/ml
  SI, % with respect to the control: 20* %
[5]; 10.0 ng/ml
  SI, % with respect to the control: 27* %
[5]; 20.0 ng/ml
  SI, % with respect to the control: 8%
[6]; [9]
  Cardiomyocyte nuclei volume: 365.4 ± 13.8** μm^3
  Nuclear-cytoplasmatic ratio: 0.28±0.03
  Parenchyma volume: 0.83 ± 0.02** cm^3/cm^3
  Stroma volume: 0.180±0.02 cm^3/cm^3
  Vessels volume, Vcap/Vcmc: 0.07 ± 0.02 Vcap/Vcmc
[6]; intact animals, versus control
  Increase of the filling of the myocardium: 11%
  Increase of the volume of cardiomyocytes' nuclei: 14%
[6]; [10]
  Cardiomyocyte nuclei volume: 386.2 ± 2.1* μm^3
  Nuclear-cytoplasmatic ratio: 0.40 ± 0.04
  Parenchyma volume: 0.82 ± 0.04 cm^3/cm^3
  Stroma volume: 0.159 ± 0.05 cm^3/cm^3
  Vessels volume, Vcap/Vcmc: 0.08 ± 0.006 Vcap/Vcmc
